What was measured:
Type in all cases: physicochemical
[1] = Apparent solubility of phosphatidylserine salts in ethanol (shake flask); settings: for Solubility, mM phosphatidylserine: 100% ethanol, room temperature, 24 hours, N=3
Experimental: Apparent solubilities of phosphatidylserine salts in ethanol were determined by shake flask technique. Sodium and ammonium salts of phosphatidylserines in the powder form were obtained from Avanti Polar Lipids (Alabama, USA). Aliquots of phosphatidylserine salt powder were placed in 12×75 borosilicate glass tubes in triplicate. Three mL of 200 proof ethanol (catalog number E-7023, MilliporeSigma, USA) were added, the tubes were closed with polyethylene snap caps, agitated using vortex mixer for 10-15 s to obtain uniform suspensions, and placed in a horizontal position on a rocking platform at room temperature (20-22° C.) overnight. The ambient temperature at the end of incubation was 20.4-20.9° C. After 24 hours incubation, the suspensions were visually checked for the presence of a solid phase, allowed to settle under gravity, and the supernatant solutions were passed through a 0.2-μm PTFE syringe membrane filters. The first 0.5 ml of the filtrate was discarded, the next 1 ml was collected, and phosphatidylserine in the filtrates was quantified by phospholipid phosphate assay as follows: 20 μL aliquots of the filtrate were taken in triplicate into glass tubes, ethanol was evaporated in a stream of argon at 70° C., and the residue was digested in a mixture of 60 μL concentrated sulfuric acid and 20 μL 30% hydrogen peroxide for 10 min at 180-190° C. The digested samples were diluted with 1 mL of deionized water, 20 μL of 10% sodium sulfite was added to destroy any residual peroxide, and the samples were incubated on a boiling water bath for 15 min to hydrolyze any condensed phosphate species. The samples were chilled down to room temperature, mixed with 0.2 mL of 2% (w/w) ammonium molybdate solution and 20 μL of 10% (w/w) ascorbic acid solution, incubated on a boiling water bath for 10 min, and chilled down in a water bath at room temperature. The phosphate concentration was determined from the optical density of the formed blue phosphomolybdic acid at 825 nm using five-point standard curve from concurrently run standards prepared from the NIST-traceable commercial phosphate standard solution diluted to cover the range of 0-2 mM phosphate (coefficient of determination R^2>0.9999). Solubility of phosphatidylserine salts was expressed in molarity units of phosphatidylserine (Table 40). The data are average f SD (N=3).

[2] = Stability of ionizable cationic lipids under accelerated oxidation (H2O2/Fe(III)Cl, UHPLC-CAD), Example 29; settings: for % of main lipid peak to To, 24 h.: individual lipids 0.5 mM; for % of main lipid peak to To, 24 h. / % of main lipid peak to To, 48 h. / % of main lipid peak to To, 72 h.: 1% H2O2/100 μM Fe(III)Cl, 37° C.; for % of main lipid peak to To, 48 h. / % of main lipid peak to To, 72 h.: individual lipids
Experimental: Ethanol (Sigma-Aldrich, cat #459836) stocks of 1 mM cationic lipids (KC3, KC3-OA, KC3-PA, KC3-C17 and KC3-C17(C8:1)) were prepared and stored at −20° C. Prior to the experiment, 75 μl of a lipid stock was mixed with 75 μl of ultra-pure water (Rx Biosciences, cat #P01-UPW02-1000) to make 0.5 mM of cationic lipids and 5 mM of linoleic acid respectively. A combined stock in water of 10% H2O2 (Sigma-Aldrich, cat #H1009) and 1 mM of Fe(III)Cl (Sigma-Aldrich, cat #372870) was freshly by prepared prior to the experiment. To make 1% final concentration of H2O2 and 100 μM Fe(III)Cl, 15 μl of 10% H2O2/1 mM Fe(III)Cl stock was added to 135 μl of individual lipids The liposomes and individual lipids were incubated with H2O2/Fe(III)Cl at 37° C. and then 5 μl from each sample was taken at different time points (0, 24, 48, 72 and 96 hours) and dissolved in 90 μl of MeOH for HPLC analysis. Degradation of the main lipid peak was analyzed using Thermo Scientific Vanquish Flex UHPLC occupied with Charged Aerosol Detector (CAD) and Phenomenex™ Kinetex C8 column (L=150 mm, D=2.1 mm, Particle Size=1.7 μm, 100 A).
The data are presented as a percentage of the main lipid peak measured at different time points relative to the lipid peak measured at time zero.

[3] = Oxidative stability of ICLs and liposomes under accelerated oxidation (H2O2/Fe(III)Cl, UHPLC-CAD), Example 18; settings: ICL lipid suspensions, 1% H2O2/100 μM Fe(III)Cl, 37° C.
Experimental: Individual lipid stocks (10 mM) were prepared in ethanol and stored at −20° C. […] Liposomal formulations based on AKG-UO-1 and O-11769 ionizable cationic lipids (Table 12) were prepared by combining lipid mixtures of desired composition in 1 mL ethanol with 3 mL 6.25 mM sodium acetate, pH 5.0 at 6 mL/min on a NanoAssemblr (Precision Nanosystems). 3.6 mL of the mixture was retained, while the initial 0.35 mL of the mixture and final 0.05 mL were discarded. Ethanol was removed by buffer exchange into PBS, pH 7.4 by concentrating each liposome preparation using an Aminon-Ultra 4 centrifugal concentrator at 500 g for 10 min at 4° C. and diluting back to the original volume with PBS. This cycle was repeated multiple times until the ethanol concentration was <1%. Finally, liposomes were sterile filtered through 0.2 μm PES (Nalgene) syringe filters and size measured by a ZetaSizer (Malvern).
Aliquots of the liposomal formulations were stored at −80° C. and thawed before the experiment. A combined stock in water of 10% H2O2 (Sigma-Aldrich, cat #H1009) and 1 mM of Fe(III)Cl (Sigma-Aldrich, cat #372870) was freshly prepared prior to the treatment. To make 1% final concentration of H2O2 and 100 μM Fe(III)Cl, 10 μl of 10% H2O2/1 mM Fe(III)Cl stock was added to 90 μl of both liposomal formulations and individual lipids The liposomes and individual lipids were incubated with H2O2/Fe(III)Cl at 37° C. and then 5 μl from each sample was taken at different time points (0, 3, 24, 48 and 72 hours) and dissolved in 90 μl of MeOH for HPLC analysis. Degradation of the main lipid peak was analyzed using Thermo Scientific Vanquish Flex UHPLC occupied with Charged Aerosol Detector (CAD) and Thermo Scientific Accucore™ C18+ UHPLC column (L=50 mm, D=2.1 mm, Particle Size=1.5 μm).
The data are presented as a percentage of the main lipid pea measure at different time points relative to the lipid peak measured at time zero.

| SMILES | Solubility, mM phosphatidylserine [1] | % of main lipid peak to To, 24 h. [2] | % of main lipid peak to To, 48 h. [2] | % of main lipid peak to To, 72 h. [2] | other results |
| --- | --- | --- | --- | --- | --- |
| CCCCCCCCCCCCCCCC(=O)OC[C@H](COP(=O)(O)OC[C@H](N)C(=O)O)OC(=O)CCCCCCCCCCCCCCC.N [DPPS ammonium] | 0.865 ± 0.060 mM | – | – | – | ethanol solubility ([1]; vs DSPS ammonium and the sodium salts): several-fold higher ethanol solubility |
| CCCCCCCCCCCCCCCC(=O)OC[C@H](COP(=O)(O)OC[C@H](N)C(=O)[O-])OC(=O)CCCCCCCCCCCCCCC.[Na+] [DPPS sodium] | 0.201 ± 0.004 mM | – | – | – | – |
| CCCCCCCCCCCCCCCCCC(=O)OC[C@H](COP(=O)(O)OC[C@H](N)C(=O)O)OC(=O)CCCCCCCCCCCCCCCCC.N [DSPS ammonium] | 0.034 ± 0.004 mM | – | – | – | – |
| CCCCCCCCCCCCCCCCCC(=O)OC[C@H](COP(=O)(O)OC[C@H](N)C(=O)[O-])OC(=O)CCCCCCCCCCCCCCCCC.[Na+] [DSPS sodium] | 0.111 ± 0.009 mM | – | – | – | – |
| CCCCC/C=C\C/C=C\CCCCCCCCC1(CCCCCCCC/C=C\C/C=C\CCCCC)OCC(CCCN(C)C)O1 (stereo not drawn) [KC3, reference compound] | – | 11.2 ± 1.0% | 10.5 ± 0.5% | 0 ± 0% | degradation under forced oxidation with H2O2 ([2]; relative to other cationic lipids, FIG. 18): fastest degradation |
| CCCCCCCC/C=C\CCCCCCCC1(CCCCCCC/C=C\CCCCCCCC)OC[C@H](CCCN(C)C)O1 [KC3-17 (C8:1), 3-((S)-2,2-di((Z)-heptadec-8-en-1-yl)-1,3-dioxolan-4-yl)-N,N-dimethylpropan-1-amine] | – | 66.1 ± 0.6% | 58.4 ± 1.5% | 45.9 ± 4.7% | – |
| CCCCCCCCCCCCCCCCCC1(CCCCCCCCCCCCCCCCC)OC[C@H](CCCN(C)C)O1 [KC3-17, (S)-3-(2,2-diheptadecyl-1,3-dioxolan-4-yl)-N,N-dimethylpropan-1-amine] | – | 92.9 ± 0.3% | 91.8 ± 1.2% | 90.2 ± 1.2% | – |
| CCCCCCCC/C=C\CCCCCCCCC1(CCCCCCCC/C=C\CCCCCCCC)OC[C@H](CCCN(C)C)O1 [KC3-OA, 3-((S)-2,2-di((Z)-octadec-9-en-1-yl)-1,3-dioxolan-4-yl)-N,N-dimethylpropan-1-amine] | – | 88.9 ± 0.5% | 84.6 ± 0.9% | 79.0 ± 0.1% | – |
| CCCCCC/C=C\CCCCCCCCC1(CCCCCCCC/C=C\CCCCCC)OC[C@H](CCCN(C)C)O1 [KC3-PA, 3-((S)-2,2-di((Z)-hexadec-9-en-1-yl)-1,3-dioxolan-4-yl)-N,N-dimethylpropan-1-amine] | – | 62.7 ± 0.1% | 59.2 ± 0.8% | 60.2 ± 0.6% | – |
| CCCCC/C=C\CCCC/C=C\CCCCC(=O)OC[C@H](CCN(C)CCO)OC(=O)CCCC/C=C\CCCC/C=C\CCCCC [UO-6] | – | – | – | – | % of parent lipid peak at time 0, 24 h [3]: 58 ± 0.8%; % of parent lipid peak at time 0, 48 h [3]: 32 ± 1.3%; % of parent lipid peak at time 0, 72 h [3]: 22 ± 1.8% |
| CCCCC/C=C\CCCC/C=C\CCCCC(=O)OC[C@H](CCCN(C)C)OC(=O)CCCC/C=C\CCCC/C=C\CCCCC [UO-7] | – | – | – | – | % of parent lipid peak at time 0, 24 h [3]: 80 ± 1.7%; % of parent lipid peak at time 0, 48 h [3]: 71 ± 0.8%; % of parent lipid peak at time 0, 72 h [3]: 62 ± 1.0% |

Reference: patent US12064479B2, “Lipid nanoparticles for delivery of nucleic acids and methods of use thereof” (Akagera Medicines, Inc., priority 2022, dated 2024)
